Source: patent US7709497B2, “Pyrazolo[3,4-b]pyridine compound, and its use as a PDE4 inhibitor” (Glaxo Group Limited, priority 2004, dated 2010)

Columns and labels:
[1] = Systemic exposure after oral administration to rat(s); type: in vivo; conditions: about 1 mg/kg oral, free base, 10% DMSO and 90% PEG200/water (70:30), preliminary tests
From the text: Although the compound of formula (I) or salt thereof may be administered orally, oral administration is not presently thought to be a preferred route of administration.

[2] = test system: TNF-α (TNF-alpha) production in Human Whole Blood; assay: Inhibition of TNF-α production in Human Whole Blood; type: cell-based; conditions: LPS-stimulated, n=6, read-out: Inhibition of TNF-α production in Human Whole Blood pIC50 (converted)
Experimental: This is an optional supplementary test, e.g. for potentially orally-administrable PDE4 inhibitors. Also, as the assay measures the effect of PDE4 inhibitors after loss by protein binding, it might also be relevant to externally-topically-administrable PDE4 inhibitors as protein-binding-loss of compound is possible during transport through the skin.
(§1) Test compounds are prepared as a ca. 10 mM stock solution in DMSO and a dilution series prepared in DMSO with 8 successive 3-fold dilutions, either directly from the 10 mM stock solution or from a more dilute solution in DMSO. The compound is added to assay plates using a Biomek Fx liquid handling robot.
Heparinised blood drawn from normal volunteers is dispensed (ca. 100 μl=ca. 100 ul) into microtitre plate wells containing ca. 0.5 or ca. 1.0 μl (ul, microliters) of an appropriately diluted test compound solution. […] Plasma TNFα content is determined by electrochemiluminescence assay using the IGEN technology (see below) or by enzyme linked immunosorbant assay (ELISA) (see below).
(§2) Ca. […] 50 μl (ul) of streptavidin/biotinylated anti-TNF-α antibody mix, ca. 25 μl ruthenium tagged anti-TNF-α monoclonal and ca. 100 μl PBS containing 0.1% bovine serum albumin are added to each well and the plates are sealed and shaken for ca. 2 hours before being read on an IGEN instrument. […]

[3] = test system: TNF-α (TNF-alpha) production in Human PBMC (Peripheral Blood Mononuclear Cell); assay: Inhibition of TNF-α production in Human PBMC assay; type: cell-based; conditions: LPS-stimulated, n=9, read-out: Inhibition of TNF-α production in PBMCs pIC50 (converted)
Experimental: as §1
PBMC cells (peripheral blood mononuclear cells) are prepared from heparinised human blood from normal volunteers by centrifugation on histopaque at ca. 1000 g for ca. 30 minutes. The cells are collected from the interface, washed by centrifugation (ca. 1300 g, ca. 10 minutes) and resuspended in assay buffer (RPMI 1640 containing 10% foetal calf serum, 1% L-glutamine and 1% penicillin/streptomycin) at 1×10^6 cells/ml. Ca. 50 μl (ca. 50 ul) cells are added to microtitre wells containing ca. 0.5 or ca/1.0 μl (ul) of an appropriately diluted compound solution. Ca. […] The supernatant is removed and the concentrations of TNF are determined by electrochemiluminescence assay using the IGEN technology or by ELISA (see below).
as §2

[4] = Aqueous solubility preliminary screen; type: physicochemical; conditions: pH 7.4 phosphate buffered saline with about 5% DMSO, aqueous with cosolvent or surfactant or cyclodextrin, free base, pH 7.4 PBS with about 5% DMSO, about room temperature
Experimental: Aqueous solubility: A preliminary screen aims to estimate roughly the aqueous solubility of compounds by (as an approximate summary): (i) creating a ca. 10 mM solution of the compound in DMSO, (ii) diluting a portion of this DMSO solution by mixing about 19 parts by volume of pH 7.4 aqueous phosphate buffered saline (PBS) buffer with 1 part by volume of the ca. 10 mM DMSO solution, (iii) “filtering” the mixture with the aid of centrifugation, and then (iv) measuring the concentration of the dissolved compound in the “filtrate”.

CCn1ncc2c(NC3CCN(C(N)=O)CC3)c(C(=O)NCc3ccc(C)c(C)c3)cnc21 [compound of formula (I), 4-{[1-(aminocarbonyl)-4-piperidinyl]amino}-N-[(3,4-dimethylphenyl)methyl]-1-ethyl-1H-pyrazolo[3,4-b]pyridine-5-carboxamide]
systemic exposure after oral administration [1]: low systemic exposure | IC50 [2]: 7.41 nM | IC50 [3]: 1.82 nM | solubility kinetic [4]: ~60 µg/mL
